Measured values taken from EP1977646A1, “Insecticidal hydroxyethyl thlourea derivatives” (Bayer CropScience AG, priority 2007, dated 2008).
Where two headings read alike, the source gives them in different places.

Tests used:
[1] = logP (HCOOH) by HPLC, EEC-Directive 79/831, Annex V.A8; type: physicochemical; conditions: gradient method; for chromatographic logP: hplc acetonitrile/0.1% hcooh
Procedure: A stirred mixture of 600 mg (3,4 mmol) 4-fluoro-1-aminoindane and 778 mg (4.37 mmol) 1,1-thiocarbonyldiimidazole in dichloromethane was kept at ambient temperature for 1,5 h. After addition of 230 mg (3.74 mmol) 2-aminoethanol dissolved in 3 mL dichloromethane the resulting mixture was stirred for further 72 h at ambient temperature. Then, the mixture was diluted with ethyl acetate and washed with 1 N HCl and saturated NaHCO3 solution. After phase separation, the organic phase was dried with solid Na2SO4, filtered and evaporated under reduced pressure. The residue was purified by chromatography (silica gel, cyclohexane/ethyl acetate = vol. 5:1) to afford 350 mg 1-(4-fluoro-2,3-dihydro-1H-inden-1-yl)-3-(2-hydroxyethyl)thiourea. The NMR spectrum was consistent with the proposed structure. logP^(1)) = 1,74 [formula] ^1) logP (HCOOH) determined according to EEC-Directive 79/831, Annex V.A8 using HPLC (gradient method, acetonitrile/0.1% HCOOH)
logP (HCOOH) determined according to EEC-Directive 79/831, Annex V.A8 using HPLC (gradient method, acetonitrile/0.1% HCOOH)

Myzus persicae [2] = experiment: Myzus persicae - test (spray application); type: in vivo; conditions: application rate of 500 g/ha, Chinese cabbage leaf-disks sprayed, all instars
Procedure: Myzus persicae - test; (spray application)
(§1) To produce a suitable preparation of active compound, 1 part by weight of active compound is mixed with the stated amount of solvent and emulsifier, and the concentrate is diluted with emulsifier-containing water to the desired concentration.
Chinese cabbage (Brassica pekinesis) leaf-disks infected with all instars of the green peach aphid (Myzus persicae), are sprayed with a preparation of the active ingredient at the desired concentration.
After the specified period of time, mortality in % is determined. 100% means that all aphids have been killed; 0% means that none of the aphids have been killed.

Myzus persicae [3] = experiment: Myzus-Test; oral (spray application); type: in vivo
Procedure: Myzus-Test; oral (spray application)
To produce a suitable preparation of active compound, 1 part by weight of active compound ist mixed with the stated amount of solvent and emulsifier, and the concentrate is diluted with emulsifier-containing water to the desired concentration.
Containers are infested with a mixed population of the green peach aphid (Myzus persicae), the aphids suck on a preparation of the active compound at the desired concentration.
After the specified period of time, mortality in % is determined. 100 % means that all aphids have been killed; 0 % means that none of the aphids have been killed.

Aphis gossypii = Aphis gossypii - test (leaf dip); type: in vivo; conditions: foliar, application rate of 20 ppm, cotton leaves dipped
Procedure: Aphis gossypii - test [table] To produce a suitable preparation of active compound, 1 part by weight of active compound is mixed with the stated amount of solvent and emulsifier, and the concentrate is diluted with emulsifier-containing water to the desired concentration. Cotton leaves (Gossypium hirsutum) which are heavily infested by the cotton aphid (Aphis gossypii) are treated by being dipped into the preparation of the active compound of the desired concentration. After the specified period of time, the mortality in % is determined. 100 % means that all the aphids have been killed; 0 % means that none of the aphids have been killed.

Tetranychus urticae = Tetranychus urticae - test; OP-resistant (spray application); type: in vivo; conditions: in Phaseolus vulgaris, read-out: activity (mortality in %)
Procedure: Tetranychus urticae - test; OP-resistant (spray application)
as §1
French bean (Phaseolus vulgaris) which are heavily infested with all stages of the two spotted spidermite (Tetranychus urticae), are sprayed with a preparation of the active ingredient at the desired concentration.
After the specified period of time, mortality in % is determined. 100% means that all spider mites have been killed and 0% means that none of the spider mites have been killed.

Myzus persicae [4] = experiment: Myzus persicae - test (drench); type: in vivo; conditions: soil, application rate of 20 ppm, cabbage plants drenched
Procedure: as §1
Cabbage plants (Brassica oleracea) which are heavily infested by the green peach aphid (Myzus persicae) are treated by being drenched with the preparation of the active compound of the desired concentration.
After the specified period of time, mortality in % is determined. 100 % means that all the aphids have been killed; 0 % means that none of the aphids have been killed.

[5] = application rate of 100 ppm, aphids suck on preparation, mixed population

Row | SMILES | chromatographic logP [1] | mortality at 500 g/ha (Myzus persicae [2]) [%] | mortality at 20 ppm (Aphis gossypii) [%] | other results
1 | COCCNC(=S)NC1CCc2ccccc21 (stereo not shown) [1-4, 1-(2,3-dihydro-1H-inden-1-yl)-3-(2-methoxyethyl)thiourea] | 2.07 | ≥ 80 | – | mortality at 100 ppm (Myzus persicae [3]; [5]): ≥ 80%
2 | CC(CO)NC(=S)N[C@H]1CCc2ccccc21 (stereo partly shown) [1-21] | 1.78 | – | – | –
3 | OCCNC(=S)NC1CCc2c(F)ccc(F)c21 (stereo not shown) [1-83] | 1.68 | – | – | –
4 | OCCNC(=S)N[C@H]1CCCc2ccccc21 [4-2] | 1.79 | ≥ 80 | ≥ 80 | –
5 | COCCNC(=S)NC1CCc2c(F)cccc21 (stereo not shown) [1-17] | 2.21 | ≥ 80 | – | mortality at 100 ppm (Myzus persicae [3]): ≥ 80%
6 | OCCNC(=S)N[C@@H]1CCc2ccccc21 [1-3] | 1.65 | – | – | –
7 | OCCN(CCO)C(=S)N[C@H]1CCc2ccccc21 [1-105] | 1.64 | – | – | –
8 | OCCNC(=S)N[C@H]1CCc2ccccc21 [1-2, 1-[(1S)-2,3-dihydro-1H-inden-1-yl]-3-(2-hydroxyethyl)thiourea] | 1.65 | ≥ 80 | ≥ 80 | logP (HCOOH) ([1]; acetonitrile/0.1% HCOOH): 1,56; mortality at 100 ppm (Myzus persicae [3]; [5]): ≥ 80%; mortality at 100 g/ha (Tetranychus urticae): ≥ 80%; mortality at 20 ppm (Myzus persicae [4]): ≥ 80%
9 | OCCNC(=S)NC1CCOc2ccccc21 (stereo not shown) [3-1] | 1.42 | ≥ 80 | – | –
10 | OCCNC(=S)NC1CCc2c(F)cccc21 (stereo not shown) [1-14, 1-(4-fluoro-2,3-dihydro-1H-inden-1-yl)-3-(2-hydroxyethyl)thiourea] | 1.74 | ≥ 80 | ≥ 80 | –
